Test results taken from article PMC5739597, “Discovery and evaluation of triple inhibitors of VEGFR-2, TIE-2 and EphB4 as anti-angiogenic and anti-cancer agents” (Oncotarget, 2017).
Values joined by “and” are separate entries in the source; they are usually repeats but may differ in a detail not shown here. Identical values can stand only once.

Experiments:
TIE-2 = TIE-2 (Homo sapiens, UniProt Q02763); experiment: ADP-Glo in vitro RTK inhibition assay, TIE-2; format: biochemical; conditions: ATP 50 μM
Protocol: (§1) In order to validate the direct effect of title compounds on VEGFR-2, Tie-2, and EphB4 kinases, we performed in vitro assay using the ADP-Glo Kinase Assay Kit (Promega, Wisconsin, USA).
(§2) The kinase assay was performed in a reaction mixture of final volume of 10 μL. […] The plate was incubated at 30°C for 1 h. After the plate was cooled at room temperature for 5 min, 5 μL of ADP-Glo reagent was added into each well to stop the reaction and consume the remaining […] within 40 min. At the end, 10 μL of kinase detection reagent was added into the well and incubated for 30 min to produce a luminescence signal. […] The assay plate was incubated at 30°C for 4 h. After the plate was cooled at room temperature for 5 min, 5 μL of ADP-Glo reagent was added into each well to stop the reaction and consume the remaining […] within 1 h. At the end, 10 μL of kinase detection reagent was added into each well and incubated for 30 min to produce a luminescence signal. The luminescence was read by VICTOR-X multi-label plate reader.

EA.hy926 = experiment: Human endothelial cell (EA.hy926) viability assay, CCK-8; format: cell-based; conditions: Homo sapiens, EA.hy 926, 24 h, CCK-8, 24 h treatment; read-out: Inhibition of human endothelial cell viability, EA.hy926 IC50
Protocol: In order to determine the anti-angiogenic effect of these multi-target inhibitors, we evaluated their effect on HECs (EA.hy926) viability using cell counting kit-8 (CCK-8) method.
The viability of HECs (EA.hy926) was assessed using the cell counting kit-8 (CCK-8, Sigma, USA) assay according to the manufacturer's instruction. […] After incubation at 37°C for 48 h, the cells were treated with tested compounds at various concentrations for 24 h. Subsequently, premixed CCK-8 and medium (10 μL) were added into the 96-well plates to monitor cell viability and were incubated at 37°C for 2 h. The number of viable cells was assessed by measurement of absorbance at 450 nm by a microplate reader. The viability rate was calculated as experimental OD value/control OD value.

EphB4 = target: T1, EphB4 (Homo sapiens, UniProt P54760); experiment: ADP-Glo in vitro RTK inhibition assay, EphB4; format: biochemical; conditions: ATP 50 μM
T1 sequence (P54760 16-987): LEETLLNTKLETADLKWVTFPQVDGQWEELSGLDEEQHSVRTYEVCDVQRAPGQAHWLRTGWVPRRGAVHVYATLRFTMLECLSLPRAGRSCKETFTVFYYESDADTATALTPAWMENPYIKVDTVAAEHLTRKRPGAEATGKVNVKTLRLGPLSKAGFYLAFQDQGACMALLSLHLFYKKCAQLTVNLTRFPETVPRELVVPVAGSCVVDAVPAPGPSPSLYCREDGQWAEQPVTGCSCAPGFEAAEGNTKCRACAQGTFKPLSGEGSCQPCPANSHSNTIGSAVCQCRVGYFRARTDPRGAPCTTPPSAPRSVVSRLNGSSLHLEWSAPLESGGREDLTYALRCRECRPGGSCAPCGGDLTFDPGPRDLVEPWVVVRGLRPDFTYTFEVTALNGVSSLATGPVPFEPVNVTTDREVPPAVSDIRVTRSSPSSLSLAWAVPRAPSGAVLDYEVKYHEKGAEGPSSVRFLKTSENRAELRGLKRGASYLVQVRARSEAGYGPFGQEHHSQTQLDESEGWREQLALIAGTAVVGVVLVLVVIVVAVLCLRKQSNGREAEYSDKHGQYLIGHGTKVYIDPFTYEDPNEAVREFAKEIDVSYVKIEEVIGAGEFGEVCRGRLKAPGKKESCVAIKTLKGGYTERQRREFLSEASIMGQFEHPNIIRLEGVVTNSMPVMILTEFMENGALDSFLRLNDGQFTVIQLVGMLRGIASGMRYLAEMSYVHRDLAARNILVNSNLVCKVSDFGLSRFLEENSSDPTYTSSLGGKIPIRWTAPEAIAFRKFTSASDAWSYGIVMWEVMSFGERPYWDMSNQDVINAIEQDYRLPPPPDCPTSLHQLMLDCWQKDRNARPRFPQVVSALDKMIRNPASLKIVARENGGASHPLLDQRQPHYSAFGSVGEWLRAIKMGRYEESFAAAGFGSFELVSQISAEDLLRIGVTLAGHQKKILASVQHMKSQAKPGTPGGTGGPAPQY
Protocol: as §1, §2

VEGFR-2 [1] = target: T2, VEGFR-2 (Homo sapiens, UniProt P35968); experiment: ADP-Glo in vitro RTK inhibition assay, VEGFR-2; format: biochemical; conditions: ATP 50 μM
Protocol: as §1, §2

MCF-7 xenograft = experiment: In vivo MCF-7 xenograft mice model; conditions: ig, 40 mg/kg daily, 21 days
Protocol: Six-week old female BALB/c mice were purchased from Shanghai Laboratory Animal center of the Chinese Academy of Sciences and housed under aseptic and ventilated condition. The mice were inoculated by subcutaneous injection with MCF-7 cancer cells suspended in 5% saline. Tumor volume and weight were measured on alternate days. Body weights were monitored as an indicator of toxicity. […] Treatment started from the next day and continued for 21 days. All mice were killed at the end of the experiment, and subcutaneous tumors were removed and weighted.

VEGFR-2 [2] = target: T2, VEGFR-2; experiment: VEGFR-2/cell membrane chromatography (CMC) affinity evaluation; format: binding; conditions: flow rate 0.6 mL/min, 37°C, 5 mM PBS pH 7.4, 270 nm
Protocol: In previous studies, artificial cultures highly expressing VEGFR-2 on HEK293 cell lines were constructed. […] Chromatographic conditions: 10 mm×2.0 mm; flow rate0.6 mL/min; column temperature 37°C; mobile phase 5 mM PBS, pH 7.4; detection wavelength 270 nm.
The VEGFR-2 cell membrane stationary phase was prepared as previous reported. Aqueous ammonium acetate buffer solution (pH 7.4, 5 mM) was pumped at a flow rate of 0.2 mL/min as the mobile phase after VEGFR-2/CMC column was loaded onto the chromatography system at the temperature of 37°C. […] The mobile phase was 5.0 mM phosphate burred saline with a 0.6 mL/min flow rate at a column temperature of 37°C. The detected wavelength was 270 nm. The test compound was injected into the VEGFR-2/CMC column and their retention characteristics were identified to evaluate their affinity with VEGFR-2.

Sequence of TIE-2 (Q02763 23-1124): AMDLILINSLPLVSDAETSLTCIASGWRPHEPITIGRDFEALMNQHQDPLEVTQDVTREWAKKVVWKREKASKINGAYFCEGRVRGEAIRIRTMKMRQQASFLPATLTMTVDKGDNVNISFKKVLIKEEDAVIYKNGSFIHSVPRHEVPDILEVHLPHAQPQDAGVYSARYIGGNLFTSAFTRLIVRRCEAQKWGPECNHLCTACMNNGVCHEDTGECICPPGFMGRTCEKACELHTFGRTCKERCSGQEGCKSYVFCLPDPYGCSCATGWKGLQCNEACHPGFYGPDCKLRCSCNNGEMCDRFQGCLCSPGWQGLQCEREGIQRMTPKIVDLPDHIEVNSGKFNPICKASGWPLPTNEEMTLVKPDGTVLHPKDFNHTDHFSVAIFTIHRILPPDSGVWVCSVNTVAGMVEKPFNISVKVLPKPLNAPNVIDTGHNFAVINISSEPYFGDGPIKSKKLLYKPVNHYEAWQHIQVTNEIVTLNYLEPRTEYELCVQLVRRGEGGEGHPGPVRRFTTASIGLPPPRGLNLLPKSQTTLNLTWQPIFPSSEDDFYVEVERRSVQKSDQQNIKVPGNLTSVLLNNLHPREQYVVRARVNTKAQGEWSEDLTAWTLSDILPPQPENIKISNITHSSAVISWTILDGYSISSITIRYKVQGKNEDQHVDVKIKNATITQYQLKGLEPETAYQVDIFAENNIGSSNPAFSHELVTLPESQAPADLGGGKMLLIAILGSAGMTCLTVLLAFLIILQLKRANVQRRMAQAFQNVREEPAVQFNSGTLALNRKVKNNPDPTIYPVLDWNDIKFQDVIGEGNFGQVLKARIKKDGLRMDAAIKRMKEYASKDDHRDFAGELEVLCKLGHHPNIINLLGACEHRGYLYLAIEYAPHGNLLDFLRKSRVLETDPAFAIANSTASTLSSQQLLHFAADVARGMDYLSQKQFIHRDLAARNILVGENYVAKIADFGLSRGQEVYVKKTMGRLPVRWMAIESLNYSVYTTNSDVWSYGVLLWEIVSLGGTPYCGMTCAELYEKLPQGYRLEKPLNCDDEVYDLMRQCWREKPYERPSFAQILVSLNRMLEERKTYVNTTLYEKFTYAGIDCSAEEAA
T2 sequence (P35968 20-1356): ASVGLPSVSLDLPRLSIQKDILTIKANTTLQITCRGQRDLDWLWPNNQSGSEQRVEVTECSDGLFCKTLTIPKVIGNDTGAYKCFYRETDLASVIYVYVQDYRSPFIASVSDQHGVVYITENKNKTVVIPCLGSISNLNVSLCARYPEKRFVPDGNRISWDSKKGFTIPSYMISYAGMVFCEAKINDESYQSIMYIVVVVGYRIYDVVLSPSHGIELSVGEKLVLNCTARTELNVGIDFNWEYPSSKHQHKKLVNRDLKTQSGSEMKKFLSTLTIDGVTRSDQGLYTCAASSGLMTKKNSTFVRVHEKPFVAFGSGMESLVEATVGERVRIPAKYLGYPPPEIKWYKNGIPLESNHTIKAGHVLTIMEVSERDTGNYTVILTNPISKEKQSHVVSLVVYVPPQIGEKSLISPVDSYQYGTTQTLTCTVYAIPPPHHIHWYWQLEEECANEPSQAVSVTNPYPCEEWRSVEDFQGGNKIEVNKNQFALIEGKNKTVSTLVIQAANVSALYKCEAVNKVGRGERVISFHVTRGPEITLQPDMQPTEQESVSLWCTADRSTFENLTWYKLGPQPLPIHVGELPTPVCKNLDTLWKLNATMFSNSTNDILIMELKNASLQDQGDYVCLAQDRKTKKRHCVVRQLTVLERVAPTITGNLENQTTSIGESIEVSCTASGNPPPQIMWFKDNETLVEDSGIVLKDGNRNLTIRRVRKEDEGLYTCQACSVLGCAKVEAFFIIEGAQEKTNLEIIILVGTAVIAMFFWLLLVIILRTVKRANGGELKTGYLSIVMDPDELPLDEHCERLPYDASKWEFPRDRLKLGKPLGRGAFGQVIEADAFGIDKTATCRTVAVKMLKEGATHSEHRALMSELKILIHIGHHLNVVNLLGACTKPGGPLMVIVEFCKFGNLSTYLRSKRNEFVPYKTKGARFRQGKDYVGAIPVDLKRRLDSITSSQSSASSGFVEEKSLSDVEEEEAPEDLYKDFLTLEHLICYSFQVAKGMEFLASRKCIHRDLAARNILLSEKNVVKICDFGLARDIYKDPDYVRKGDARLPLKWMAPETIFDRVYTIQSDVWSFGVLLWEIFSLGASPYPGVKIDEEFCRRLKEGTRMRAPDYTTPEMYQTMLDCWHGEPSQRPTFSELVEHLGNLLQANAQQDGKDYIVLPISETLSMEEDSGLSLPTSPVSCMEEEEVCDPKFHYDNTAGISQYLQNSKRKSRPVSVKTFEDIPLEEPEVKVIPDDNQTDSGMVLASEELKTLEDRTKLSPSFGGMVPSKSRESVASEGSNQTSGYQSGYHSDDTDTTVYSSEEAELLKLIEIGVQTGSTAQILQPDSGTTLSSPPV

Row | Structure (SMILES) | IC50 (TIE-2) | IC50 (EA.hy926) | IC50 (EphB4) | melting point | IC50 (VEGFR-2 [1]) | Final body weight (MCF-7 xenograft) | Tumor growth inhibition (MCF-7 xenograft) | Final tumor weight (MCF-7 xenograft; control 0.848±0.5) | Retention time on VEGFR-2/cell membrane stationary phase column (VEGFR-2 [2])
1 | O=C(Nc1ccc(-c2ccc3c(=O)[nH]cnc3c2)cc1)Nc1ccc(Cl)c(C(F)(F)F)c1 [QDAU9, 1-(4-chloro-3-(trifluoromethyl)phenyl)-3-(4-(4-oxo-3,4-dihydroquinazolin-7-yl)phenyl)urea] | 0.0196 µM | 13 µM | 0.0244 µM | > 300 °C | 0.0158 µM |  |  |  | 
2 | CNC(=O)c1cc(Oc2ccc(NC(=O)Nc3ccc(Cl)c(C(F)(F)F)c3)cc2)ccn1 [Sorafenib, sorafenib, reference compound] |  |  |  |  |  | 16.8 ± 0.9 g | 53% | 0.398 ± 0.8 g | 
3 | O=C(Nc1ccc(OC(F)(F)F)cc1)Nc1ccc(-c2ccc3c(=O)[nH]cnc3c2)cc1 [QDAU7, 1-(4-(4-oxo-3,4-dihydroquinazolin-7-yl)phenyl)-3-(4-(trifluoromethoxy)phenyl)urea] | 0.258 µM | 68.5 µM | > 0.5 µM | > 300 °C | > 0.5 µM |  |  |  | 
4 | O=C(Nc1ccc(-c2ccc3c(=O)[nH]cnc3c2)cc1)Nc1cccc(F)c1 [QDAU3, 1-(3-fluorophenyl)-3-(4-(4-oxo-3,4-dihydroquinazolin-7-yl)phenyl)ure] | 0.0907 µM | 42.6 µM | 0.00564 µM | > 300 °C | > 0.5 µM |  |  |  | 
5 | CNC(=O)c1cc(Oc2ccc(NC(=O)Nc3ccc(Cl)c(C(F)(F)F)c3)c(F)c2)ccn1 [regorafenib, reference compound] |  |  |  |  |  |  |  |  | 11 min and 10.6 min
6 | CC(C)c1cccc(NC(=O)Nc2ccc(-c3ccc4c(=O)[nH]cnc4c3)cc2)c1 [QDAU8, 1-(3-isopropylphenyl)-3-(4-(4-oxo-3,4-dihydroquinazolin-7-yl)phenyl)urea] | > 0.5 µM | 76.2 µM | > 0.5 µM | > 300 °C | 0.0415 µM |  |  |  | 
7 | FC(F)(F)c1cc(NC(=S)Nc2ccc(-c3cccnc3)cc2)cc(C(F)(F)F)c1 [DATU9, N-[3,5-bis(trifluoromethyl)phenyl]-N’-(4-pyridin-3-ylphenyl)thiourea] | > 0.5 µM | 166 µM | > 0.5 µM | 157 to 158 °C | > 0.5 µM |  |  |  | 
8 | FC(F)(F)c1cc(Br)cc(NC(=S)Nc2ccc(-c3cccnc3)cc2)c1 [DATU1, N-[3-bromo-5-(trifluoromethyl)phenyl]-N’-(4-pyridin-3-ylphenyl)thiourea] | 0.0257 µM |  | 0.02 µM | 197 to 199 °C | 0.0206 µM |  |  |  | 
9 | S=C(Nc1ccc(-c2cccnc2)cc1)Nc1ccc(Cl)cc1Cl [DATU6, N-(2,4-dichlorophenyl)-N’-(4-pyridin-3-ylphenyl)thiourea] | 0.0665 µM | 24.4 µM | 0.00386 µM | 156 to 157 °C | 0.0235 µM |  |  |  | 
10 | FC(F)(F)Oc1ccc(Br)cc1NC(=S)Nc1ccc(-c2cccnc2)cc1 [DATU4, N-[5-bromo-2-(trifluoromethoxy)phenyl]-N’-(4-pyridin-3-ylphenyl)thiourea] | > 0.5 µM | 44.8 µM | 0.0187 µM | 154 to 155 °C | > 0.5 µM |  |  |  | 
11 | FC(F)(F)Oc1ccc(Br)c(NC(=S)Nc2ccc(-c3cccnc3)cc2)c1 [DATU5, N-[2-bromo-5-(trifluoromethoxy)phenyl]-N’-(4-pyridin-3-ylphenyl)thiourea] | > 0.5 µM | 246 µM | 0.0542 µM | 125 to 126 °C | > 0.5 µM |  |  |  | 
12 | FC(F)(F)Oc1ccc(NC(=S)Nc2ccc(-c3cccnc3)cc2)c(Br)c1 [DATU3, N-[2-bromo-4-(trifluoromethoxy)phenyl]-N’-(4-pyridin-3-ylphenyl)thiourea] | 0.02 µM | 122 µM | 0.0218 µM | 162 to 163 °C | > 0.5 µM |  |  |  | 
13 | O=C(Nc1ccc(-c2ccc3c(=O)[nH]cnc3c2)cc1)Nc1ccc(C(F)(F)F)cc1 [QDAU10, 1-(4-(4-oxo-3,4-dihydroquinazolin-7-yl)phenyl)-3-(4-(trifluoromethyl)phenyl)urea] | 0.0527 µM | 125 µM | > 0.5 µM | > 300 °C | 0.0507 µM |  |  |  | 
14 | O=C(Nc1ccc(-c2ccc3c(=O)[nH]cnc3c2)cc1)Nc1cccc(Cl)c1 [QDAU2, 1-(3-chlorophenyl)-3-(4-(4-oxo-3,4-dihydroquinazolin-7-yl)phenyl)urea] | 0.0839 µM | 66.3 µM | > 0.5 µM | > 300 °C | 0.0579 µM |  |  |  | 
15 | O=C(Nc1ccc(-c2ccc3c(=O)[nH]cnc3c2)cc1)Nc1cccc(C(F)(F)F)c1 [QDAU1, 1-(4-(4-oxo-3,4-dihydroquinazolin-7-yl)phenyl)-3-(3-(trifluoromethyl)phenyl)urea] | 0.0705 µM | 57.9 µM | > 0.5 µM |  | 0.194 µM |  |  |  | 
16 | O=C(Nc1ccc(F)cc1)Nc1ccc(-c2ccc3c(=O)[nH]cnc3c2)cc1 [QDAU6, 1-(4-fluorophenyl)-3-(4-(4-oxo-3,4-dihydroquinazolin-7-yl)phenyl)urea] | 0.101 µM | 255 µM | > 0.5 µM | > 300 °C | 0.00628 µM |  |  |  | 
17 | S=C(Nc1ccc(-c2cccnc2)cc1)Nc1ccc(Cl)c(Cl)c1 [DATU8, N-(3,4-dichlorophenyl)-N’-(4-pyridin-3-ylphenyl)thiourea] | 0.0094 µM | 102 µM | > 0.5 µM | 173 to 175 °C | 0.354 µM |  |  |  | 
18 | FC(F)(F)Oc1cc(Br)ccc1NC(=S)Nc1ccc(-c2cccnc2)cc1 [DATU2, N-[4-bromo-2-(trifluoromethoxy)phenyl]-N’-(4-pyridin-3-ylphenyl)thiourea] | 0.0642 µM | 89.9 µM | > 0.5 µM | 144 to 145 °C | > 0.5 µM |  |  |  | 
19 | Fc1ccc(NC(=S)Nc2ccc(-c3cccnc3)cc2)cc1F [DATU7, N-(3,4-difluorophenyl)-N’-(4-pyridin-3-ylphenyl)thiourea] | 0.0484 µM | 96.4 µM | 0.01 µM | 139 to 140 °C | 0.0452 µM |  |  |  | 
20 | S=C(Nc1ccc(-c2cccnc2)cc1)Nc1ccc2c(c1)OCO2 [DATU10, N-1,3-benzodioxol-5-yl-N’-(4-pyridin-3-ylphenyl)thiourea] | > 0.5 µM | 90.6 µM | > 0.5 µM | 147 to 148 °C | 0.0204 µM |  |  |  | 
